From patent US11541028B2, “Peptide pharmaceuticals for treatment of NASH and other disorders” (Mederis Diabetes LLC, priority 2018, dated 2023)
Numbered stars: 1 amine (or outer) side, 2 acyl side, 3 side chain; on linkers, the order of the positions; unused ones are H or OH. Bridge positions count the residues as written; N and C are the ends. Square brackets hold non-standard residues; d marks the D form. Side chains are listed from the residue outwards. Peptide text beside a SMILES is read from it. * marks the point of attachment. X1 = CCCCCCCCCCCCCCCCO[C@@H]1O[C@H](CO[C@H]2O[C@H](C(=O)*)[C@H](O)[C@H](O)[C@H]2O)[C@@H](O)[C@H](O)[C@H]1O; GlcA(1β-O-tetradecyl) = CCCCCCCCCCCCCCO[C@@H]1O[C@H](C(=O)*)[C@@H](O)[C@H](O)[C@H]1O; εLys = N[C@@H](CCCCN[*:1])C(=O)[*:2]; Aib = CC(C)(N)C(=O)O

How the values were obtained:
human GLP-1 receptor = molecular target: T1, human GLP-1 receptor (Homo sapiens, UniProt P43220); experiment: DiscoveRx LeadHunter cellular assay, cAMP stimulation, GLP-1 receptor in CHO cells; type: cell-based; conditions: human GLP-1 receptor in CHO cells (DiscoveRx); read-out: EC50 cAMP GLP-1 R
T1 construct: host or cells: CHO cells
T1 sequence (P43220 24-463): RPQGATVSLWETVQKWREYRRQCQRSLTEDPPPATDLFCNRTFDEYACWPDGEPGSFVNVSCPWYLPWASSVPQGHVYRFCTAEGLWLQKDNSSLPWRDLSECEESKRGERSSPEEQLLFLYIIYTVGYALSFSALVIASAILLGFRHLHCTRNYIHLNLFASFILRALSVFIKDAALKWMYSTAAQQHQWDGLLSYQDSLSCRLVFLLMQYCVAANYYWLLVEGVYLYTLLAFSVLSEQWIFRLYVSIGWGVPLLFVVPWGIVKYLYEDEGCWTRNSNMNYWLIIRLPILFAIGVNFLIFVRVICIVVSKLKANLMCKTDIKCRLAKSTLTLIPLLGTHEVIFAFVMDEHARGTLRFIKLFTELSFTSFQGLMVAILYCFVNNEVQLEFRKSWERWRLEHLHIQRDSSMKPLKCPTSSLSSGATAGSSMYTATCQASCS

human glucagon receptor = molecular target: T2, human glucagon receptor (Homo sapiens, UniProt P47871); experiment: DiscoveRx LeadHunter cellular assay, cAMP stimulation, glucagon receptor in CHO cells; type: cell-based
T2 construct: host or cells: CHO cells
T2 sequence (P47871 26-477): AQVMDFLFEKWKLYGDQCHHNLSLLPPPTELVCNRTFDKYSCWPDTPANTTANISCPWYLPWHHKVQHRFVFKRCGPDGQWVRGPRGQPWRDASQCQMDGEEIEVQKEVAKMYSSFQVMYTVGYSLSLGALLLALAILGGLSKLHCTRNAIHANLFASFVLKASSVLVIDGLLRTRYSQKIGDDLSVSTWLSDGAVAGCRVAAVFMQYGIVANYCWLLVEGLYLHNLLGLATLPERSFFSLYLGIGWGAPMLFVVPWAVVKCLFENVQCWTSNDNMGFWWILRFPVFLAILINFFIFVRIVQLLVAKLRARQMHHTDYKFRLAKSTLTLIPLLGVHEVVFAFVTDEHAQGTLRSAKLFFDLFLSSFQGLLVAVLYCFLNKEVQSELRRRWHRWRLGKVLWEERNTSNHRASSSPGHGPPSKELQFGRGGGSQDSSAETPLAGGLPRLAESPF

| Structure (SMILES) | EC50 (human GLP-1 receptor) | EC50 (human glucagon receptor) |
| --- | --- | --- |
| CCCCCCCCCCCCCCO[C@@H]1O[C@H](C(=O)NCCCC[C@H](N)C(=O)NCCCC[C@H](NC(=O)[C@H](C)NC(=O)[C@H](C)NC(=O)[C@H](CCC(N)=O)NC(=O)[C@@H]2CCCCNC(=O)CC[C@H](NC(=O)[C@H](CO)NC(=O)[C@H](Cc3ccc(O)cc3)NC(=O)[C@H](CC(=O)O)NC(=O)[C@H](CO)NC(=O)[C@@H](NC(=O)[C@H](Cc3ccccc3)NC(=O)[C@@H](NC(=O)CNC(=O)[C@H](CCC(N)=O)NC(=O)C(C)(C)NC(=O)[C@@H](N)Cc3c[nH]cn3)[C@@H](C)O)[C@@H](C)O)C(=O)N[C@@H](Cc3ccc(O)cc3)C(=O)N[C@@H](CC(C)C)C(=O)N[C@@H](CC(=O)O)C(=O)N2)C(=O)N[C@@H](CCC(=O)O)C(=O)N[C@@H](Cc2ccccc2)C(=O)N[C@H](C(=O)N[C@@H](CCC(N)=O)C(=O)N[C@@H](Cc2c[nH]c3ccccc23)C(=O)N[C@@H](CC(C)C)C(=O)N[C@@H](CC(C)C)C(=O)N[C@@H](CCC(N)=O)C(=O)N[C@H](C(N)=O)[C@@H](C)O)[C@@H](C)CC)[C@@H](O)[C@H](O)[C@H]1O [EU-A1784] (H-H[Aib]QGTFTSDYSEYLDKQAAK([εLys-GlcA(1β-O-tetradecyl)])EFIQWLLQT-NH2; lactam 12-16; N-terminus assumed) | 48 pM | 1910 pM |
| CCCCCCCCCCCCO[C@@H]1O[C@H](CO[C@H]2O[C@H](C(=O)N[C@@H](CCC(=O)N[C@@H](CCC(=O)NCCCC[C@H](NC(=O)[C@@H](NC(=O)[C@H](Cc3ccccc3)NC(=O)[C@H](CCC(=O)O)NC(=O)[C@@H]3CCCCNC(=O)CC[C@H](NC(=O)[C@H](CC(=O)O)NC(=O)[C@H](CC(C)C)NC(=O)[C@H](Cc4ccc(O)cc4)NC(=O)[C@H](CCCCN)NC(=O)[C@H](CO)NC(=O)[C@H](Cc4ccc(O)cc4)NC(=O)[C@H](CC(=O)O)NC(=O)[C@H](CO)NC(=O)[C@@H](NC(=O)[C@H](Cc4ccccc4)NC(=O)[C@@H](NC(=O)CNC(=O)[C@H](CCC(N)=O)NC(=O)C(C)(C)NC(=O)[C@@H](N)Cc4c[nH]cn4)[C@@H](C)O)[C@@H](C)O)C(=O)N[C@@H](CCC(N)=O)C(=O)N[C@@H](C)C(=O)N[C@@H](C)C(=O)N3)[C@@H](C)CC)C(=O)N[C@@H](Cc3c[nH]c4ccccc34)C(=O)N[C@@H](CC(C)C)C(=O)N[C@@H](CC(C)C)C(=O)N[C@@H](CCC(N)=O)C(=O)N[C@H](C(=O)O)[C@@H](C)O)C(=O)O)C(=O)O)[C@H](O)[C@H](O)[C@H]2O)[C@@H](O)[C@H](O)[C@H]1O [EU-A1620] | 51 pM | 240 pM |
| CCCCCCCCCCCCCCO[C@@H]1O[C@H](CO[C@H]2O[C@H](C(=O)N[C@@H](CCC(=O)NCCCC[C@H](NC(=O)[C@@H](NC(=O)[C@H](Cc3ccccc3)NC(=O)[C@H](CCC(=O)O)NC(=O)[C@@H]3CCCCNC(=O)CC[C@H](NC(=O)[C@H](CC(=O)O)NC(=O)[C@H](CC(C)C)NC(=O)[C@H](Cc4ccc(O)cc4)NC(=O)[C@H](CCCCN)NC(=O)[C@H](CO)NC(=O)[C@H](Cc4ccc(O)cc4)NC(=O)[C@H](CC(=O)O)NC(=O)[C@H](CO)NC(=O)[C@@H](NC(=O)[C@H](Cc4ccccc4)NC(=O)[C@@H](NC(=O)CNC(=O)[C@H](CCC(N)=O)NC(=O)C(C)(C)NC(=O)[C@@H](N)Cc4c[nH]cn4)[C@@H](C)O)[C@@H](C)O)C(=O)N[C@@H](CCC(N)=O)C(=O)N[C@@H](C)C(=O)N[C@@H](C)C(=O)N3)[C@@H](C)CC)C(=O)N[C@@H](Cc3c[nH]c4ccccc34)C(=O)N[C@@H](CC(C)C)C(=O)N[C@@H](CC(C)C)C(=O)N[C@@H](CCC(N)=O)C(=O)N[C@H](C(N)=O)[C@@H](C)O)C(=O)O)[C@H](O)[C@H](O)[C@H]2O)[C@@H](O)[C@H](O)[C@H]1O [EU-A1607] | 22 pM | 126 pM |
| CCCCCCCCCCCCO[C@@H]1O[C@H](C(=O)NCCCC[C@H](NC(=O)[C@@H](NC(=O)[C@H](Cc2ccccc2)NC(=O)[C@H](CCC(=O)O)NC(=O)[C@@H]2CCCCNC(=O)CC[C@H](NC(=O)[C@H](CC(=O)O)NC(=O)[C@H](CC(C)C)NC(=O)[C@H](Cc3ccc(O)cc3)NC(=O)[C@H](CCCCN)NC(=O)[C@H](CO)NC(=O)[C@H](Cc3ccc(O)cc3)NC(=O)[C@H](CC(=O)O)NC(=O)[C@H](CO)NC(=O)[C@@H](NC(=O)[C@H](Cc3ccccc3)NC(=O)[C@@H](NC(=O)CNC(=O)[C@H](CCC(N)=O)NC(=O)C(C)(C)NC(=O)[C@@H](N)Cc3c[nH]cn3)[C@@H](C)O)[C@@H](C)O)C(=O)N[C@@H](CCC(N)=O)C(=O)N[C@@H](C)C(=O)N[C@@H](C)C(=O)N2)[C@@H](C)CC)C(=O)N[C@@H](Cc2c[nH]c3ccccc23)C(=O)N[C@@H](CC(C)C)C(=O)N[C@@H](CC(C)C)C(=O)N[C@@H](CCC(N)=O)C(=O)N[C@H](C(=O)NCCOCCOCCOCCOCCOCCOCCOCCOCCC(=O)O)[C@@H](C)O)[C@@H](O)[C@H](O)[C@H]1O [EU-A1645] | 29 pM | 91 pM |

Now those with a lower EC50 (human GLP-1 receptor), led by results:

| EC50 (human GLP-1 receptor) | EC50 (human glucagon receptor) | Structure (SMILES) |
| --- | --- | --- |
| 9 pM | 26 pM | CCCCCCCCCCCCO[C@@H]1O[C@H](C(=O)NCCCC[C@H](N)C(=O)NCCCC[C@H](NC(=O)[C@@H](NC(=O)[C@H](Cc2ccccc2)NC(=O)[C@H](CCC(=O)O)NC(=O)[C@@H]2CCCCNC(=O)CC[C@H](NC(=O)[C@H](CC(=O)O)NC(=O)[C@H](CC(C)C)NC(=O)[C@H](Cc3ccc(O)cc3)NC(=O)[C@H](CCCCN)NC(=O)[C@H](CO)NC(=O)[C@H](Cc3ccc(O)cc3)NC(=O)[C@H](CC(=O)O)NC(=O)[C@H](CO)NC(=O)[C@@H](NC(=O)[C@H](Cc3ccccc3)NC(=O)[C@@H](NC(=O)CNC(=O)[C@H](CCC(N)=O)NC(=O)C(C)(C)NC(=O)[C@@H](N)Cc3c[nH]cn3)[C@@H](C)O)[C@@H](C)O)C(=O)N[C@@H](CCC(N)=O)C(=O)N[C@@H](C)C(=O)N[C@@H](C)C(=O)N2)[C@@H](C)CC)C(=O)N[C@@H](Cc2c[nH]c3ccccc23)C(=O)N[C@@H](CC(C)C)C(=O)N[C@@H](CC(C)C)C(=O)N[C@@H](CCC(N)=O)C(=O)N[C@H](C(N)=O)[C@@H](C)O)[C@@H](O)[C@H](O)[C@H]1O [EU-A1711] |
| 9 pM | 132 pM | CCCCCCCCCCCCO[C@@H]1O[C@H](C(=O)NCCCC[C@H](NC(=O)[C@@H](NC(=O)[C@H](Cc2ccccc2)NC(=O)[C@H](CCC(=O)O)NC(=O)[C@@H]2CCCCNC(=O)CC[C@H](NC(=O)[C@H](CC(=O)O)NC(=O)[C@H](CC(C)C)NC(=O)[C@H](Cc3ccc(O)cc3)NC(=O)[C@H](CCCCN)NC(=O)[C@H](CO)NC(=O)[C@H](Cc3ccc(O)cc3)NC(=O)[C@H](CC(=O)O)NC(=O)[C@H](CO)NC(=O)[C@@H](NC(=O)[C@H](Cc3ccccc3)NC(=O)[C@@H](NC(=O)CNC(=O)[C@H](CCC(N)=O)NC(=O)C(C)(C)NC(=O)[C@@H](N)Cc3c[nH]cn3)[C@@H](C)O)[C@@H](C)O)C(=O)N[C@@H](CCC(N)=O)C(=O)N[C@@H](C)C(=O)N[C@@H](C)C(=O)N2)[C@@H](C)CC)C(=O)N[C@@H](Cc2c[nH]c3ccccc23)C(=O)N[C@@H](CC(C)C)C(=O)N[C@@H](CC(C)C)C(=O)N[C@@H](CCC(N)=O)C(=O)N[C@H](C(=O)O)[C@@H](C)O)[C@@H](O)[C@H](O)[C@H]1O [EU-A1681] |
| 8 pM | 240 pM | CCCCCCCCCCCCCCCCO[C@@H]1O[C@H](CO[C@H]2O[C@H](C(=O)NCCCC[C@H](NC(=O)[C@@H](NC(=O)[C@H](Cc3ccccc3)NC(=O)[C@H](CCC(=O)O)NC(=O)[C@@H]3CCCCNC(=O)CC[C@H](NC(=O)[C@H](CC(=O)O)NC(=O)[C@H](CC(C)C)NC(=O)[C@H](Cc4ccc(O)cc4)NC(=O)[C@H](CCCCN)NC(=O)[C@H](CO)NC(=O)[C@H](Cc4ccc(O)cc4)NC(=O)[C@H](CC(=O)O)NC(=O)[C@H](CO)NC(=O)[C@@H](NC(=O)[C@H](Cc4ccccc4)NC(=O)[C@@H](NC(=O)CNC(=O)[C@H](CCC(N)=O)NC(=O)C(C)(C)NC(=O)[C@@H](N)Cc4c[nH]cn4)[C@@H](C)O)[C@@H](C)O)C(=O)N[C@@H](CCC(N)=O)C(=O)N[C@@H](C)C(=O)N[C@@H](C)C(=O)N3)[C@@H](C)CC)C(=O)N[C@@H](Cc3c[nH]c4ccccc34)C(=O)N[C@@H](CC(C)C)C(=O)N[C@@H](CC(C)C)C(=O)N[C@@H](CCC(N)=O)C(=O)N[C@H](C(N)=O)[C@@H](C)O)[C@H](O)[C@H](O)[C@H]2O)[C@@H](O)[C@H](O)[C@H]1O [EU-A1025] |
| 8 pM | 1170 pM | CCCCCCCCCCCCCCCCO[C@@H]1O[C@H](CO[C@H]2O[C@H](C(=O)NCCCC[C@H](NC(=O)[C@H](C)NC(=O)[C@H](C)NC(=O)[C@H](CCC(N)=O)NC(=O)[C@H](CO)NC(=O)[C@H](CC(=O)O)NC(=O)[C@@H]3CCCCNC(=O)CC[C@H](NC(=O)[C@H](CC(=O)O)NC(=O)[C@H](CO)NC(=O)[C@@H](NC(=O)[C@H](Cc4ccccc4)NC(=O)[C@@H](NC(=O)CNC(=O)[C@H](CCC(N)=O)NC(=O)C(C)(C)NC(=O)[C@@H](N)Cc4c[nH]cn4)[C@@H](C)O)[C@@H](C)O)C(=O)N[C@@H](CO)C(=O)N[C@@H](CCCCN)C(=O)N[C@@H](Cc4ccc(O)cc4)C(=O)N3)C(=O)N[C@@H](CCC(=O)O)C(=O)N[C@@H](Cc3ccccc3)C(=O)N[C@H](C(=O)N[C@@H](CCC(N)=O)C(=O)N[C@@H](Cc3c[nH]c4ccccc34)C(=O)N[C@@H](CC(C)C)C(=O)N[C@@H](CC(C)C)C(=O)N[C@@H](CCC(N)=O)C(=O)N[C@H](C(N)=O)[C@@H](C)O)[C@@H](C)CC)[C@H](O)[C@H](O)[C@H]2O)[C@@H](O)[C@H](O)[C@H]1O [EU-A1730] (H-H[Aib]QGTFTSDESKYKDSQAAK(X1)EFIQWLLQT-NH2; lactam 10-14; N-terminus assumed) |
